Data from patent US20240316051A1, “A PHARMACEUTICAL COMBINATION AND USE THEREOF” (Ascentage Pharma (Suzhou) Co., Ltd., priority 2021, published 2024).

Tested on: 22RV1 prostate xenograft
Experiment: Subcutaneous 22RV1 prostate xenograft model (Example 24)
Assay type: in vivo, mice
Method: A subcutaneous xenograft tumor model of human tumor immunodeficient mice was established by cell inoculation: tumor cells in logarithmic growth phase were collected, counted, resuspended in 1×PBS, and the cell suspension concentration was adjusted to 2.5-5×10^7/mL. The tumor cells were inoculated subcutaneously in the right side of immunodeficient mice with a 1 ml syringe ([…]), 5-10×10^6/0.2 mL/mouse. All animal experiments were strictly in accordance with the specifications for the use and management of experimental animals in GenePharma Co., Ltd. and Suzhou Ascentage Pharma Co., Ltd. The calculation of relevant parameters refers to the Chinese NMPA “Guidelines for Non-Clinical Research Techniques of Cytotoxic Anti-tumor Drugs”.
Animal body weight and tumor size were measured twice weekly during the experiment. The state of the animal and the presence or absence of death were observed every day. The growth of tumor and the effects of treatment on normal behavior of animals were monitored routinely, specifically involving experimental animal activity, feeding and drinking, weight gain or loss, eyes, clothing hair and other abnormalities. The deaths and clinical symptoms observed during the experiment were recorded in the raw data. All operations for administration and measurement of mouse body weight and tumor volume were performed in a clean bench. According to the requirements of the experimental protocol, after the end of the last administration, plasma and tumor tissues were collected, weighed and photographed. The plasma and tumor samples were frozen at −80° C. for ready-to-use.
Tumor volume (TV) is calculated as: TV=a×b^2/2, wherein a and b represent the length and width of the tumor to be measured, respectively.
The relative tumor volume (RTV) is calculated as: RTV=Vt/V1, wherein V1 is the tumor volume at the start of grouping and administration, and Vt is the tumor volume measured on the t day after administration.
The evaluation index of anti-tumor activity is the relative tumor proliferation rate T/C (%), and the calculation formula thereof is: relative tumor proliferation rate T/C (%)=(TRTV/CRTV)×100%, TRTV is the RTV of treatment group, CRTV is the RTV of solvent control group.
Change of body weight (%)=(measured body weight-body weight at the start of grouping)/body weight at the start of grouping×100%.
A dose of drug is considered to be severely toxic if the body weight of mouse is reduced by more than 20% or the number of drug-related deaths exceeds 20%.
According to the description by Clarke R., Issues in experimental design and endpoint analysis in the study of experimental cytotoxic agents in vivo in breast cancer and other models [J]. Breast Cancer Research & Treatment, 1997, 46(2-3): 255-278, synergy analysis was evaluated using the following formula: synergy factor=((A/C)×(B/C))/(AB/C); A=RTV value of drug A alone group; B=RTV value of drug B alone group; C=RTV value of the solvent control group, and AB=RTV value of the A and B combination group.
In this experiment, subcutaneous 22RV1 prostate xenograft model was established to evaluate the anti-tumor effect of Compound 73 in combination with Compound C. The dosing regimen was as follows: • Compound C: 100 mg/kg, orally, every other day, for a total of 28 days; • Compound 73: 100 mg/kg, orally, once per day, for a total of 28 days;
The dosing regimen of each drug in the dosing regimen for the combination is the same as the dosing regimen for the single drug, for a total of 28 days.

CC(C)N1Cc2cc(C(F)(F)F)ncc2-c2cnc(NCc3c(F)ccc4c3CCO4)n3cnc(c23)C1=O [Compound 73, 12-(((5-fluoro-2,3-dihydrobenzofuran-4-yl)methyl)amino)-4-isopropyl-7-(trifluoromethyl)-4,5-dihydro-3H-2,4,8,11,12a-pentaazabenzo[4,5]cycloocta[1,2,3-cd]inden-3-one]
RTV@ D 26 (22RV1 xenograft, day 26, Compound 73 100 mg/kg orally once per day, Compound C 50 mg/kg (table) orally every other day): 7.91 ± 0.74 | T/C(%) @ D 26 (22RV1 xenograft, day 26, Compound 73 100 mg/kg, Compound C 50 mg/kg (table)): 49.89% | RTV@ D 29 (22RV1 xenograft, day 29): 9.28 ± 0.61 | RTV@ D 32 (22RV1 xenograft, day 32): 11.53 ± 0.68 | T/C value (day 26, Compound C 100 mg/kg orally every other day, Compound 73 100 mg/kg orally once per day, alone or combined): 49.89%
